Consider three molecules from paper PMC11852925 (2025).

Each structure is given as a SMILES string.

Assay in all cases: fluorescence titration, multiwavelength global analysis
Experiment [1] relates to hTel45 (DNA, G4) GGGTTAGGGTTAGGGTTAGGGTTAGGGTTAGGGTTAGGGTTAGGG
Particulars: 100 mM KCl, 10 mM K-phosphate pH 7.0, 295 K.

The subject of experiment [2] is c-myc22 (DNA, G4) GAGGGTGGGGAGGGTGGGGAAG
The following applies: 100 mM KCl, 10 mM K-phosphate pH 7.0, 295 K, 1:1 complex.

The subject of experiment [3] is hTel22 (DNA, G4) AGGGTTAGGGTTAGGGTTAGGG
Particulars: 100 mM KCl, 10 mM K-phosphate pH 7.0, 295 K, 1:1 complex.

Experiment [4] has as its system ds26 (DNA, duplex) CAATCGGATCGAATTCGATCCGATTG
The following applies: 100 mM KCl, 10 mM K-phosphate pH 7.0, 295 K.

Consider `CCCNC(=O)c1ccc2[nH]c3c([nH]c2c1)c1c(=O)n(CCCN(C)C)c(=O)c2ccc4c(=O)n(CCCN(C)C)c(=O)c3c4c21`, for which the logK was found to be 14.41 ± 0.05 in experiment [1] (cumulative constant of 1:2 (DNA:ligand) complex, 1:4 28.6, dimerization included); 6.89 ± 0.05 in experiment [2] (dimerization (logK 6.6) included, cumulative 1:2 14.74); 7.64 ± 0.16 in experiment [3] (ligand dimerization (logK 6.6) included, cumulative 1:2 logK 14.04); 7.6 in experiment [4] (per site of 1:2 complex, cumulative 1:2 15.25, 1:4 29.15).

For `CN(C)CCCN1C(=O)c2ccc3c4c(c(NCCCCCCCNC(=O)c5ccc6[nH]c7c([nH]c6c5)c5c(=O)n(CCCN(C)C)c(=O)c6ccc8c(=O)n(CCCN(C)C)c(=O)c7c8c65)cc(c24)C1=O)C(=O)N(CCCN(C)C)C3=O`, the logK is listed as 7.91 ± 0.07 in experiment [1] (1:1 complex, cumulative 1:2 12.94, 1:4 25.52, 2:1 13.24); 6.16 ± 0.02 in experiment [2] (cumulative 1:2 13.78); 8.93 ± 0.07 in experiment [3] (cumulative 1:2 15.71, 2:1 (DNA:dyad) 14.14); 6.50 ± 0.03 in experiment [4] (1:1 complex, cumulative 1:2 12.95, 1:3 18.35).

For `CN(C)CCCN1C(=O)c2ccc3c4c(c(NCc5cn(CCCNC(=O)c6ccc7[nH]c8c([nH]c7c6)c6c(=O)n(CCCN(C)C)c(=O)c7ccc9c(=O)n(CCCN(C)C)c(=O)c8c9c76)nn5)cc(c24)C1=O)C(=O)N(CCCN(C)C)C3=O`, the logK is 13.80 ± 0.05 in experiment [1] (cumulative constant of 1:2 (DNA:dyad) complex, 1:4 26.88, 2:1 11.55); 7.77 ± 0.12 in experiment [2] (cumulative 1:2 14.36, 2:1 11.69); 7.67 ± 0.05 in experiment [3] (cumulative 1:2 14.68, 1:3 20.37); 5.82 ± 0.02 in experiment [4] (1:1 complex, cumulative 1:2 12.48, 1:3 17.70).
